Assay results as given in US11911481B2, “Compositions and methods for treating RSV-infections” (UNITED STATES GOVERNMENT AS REPRESENTED BY THE DEPARTMENT …, priority 2018, dated 2024).

Tests used:
[1] = tested on: RSV rA2-L19F; assay: Inhibition of RSV rA2-L19F fusion by HR2D peptide in A549 cells; assay type: cell-based; settings: A549 cells pre-treated with 5 or 20 μM 30 min before infection, MOI 0.1, 24 hours
Description: Fluorescence microscopy images of A549 cells pre-treated with 5 or 20 μM HR2D peptide 30 min before RFP-RSV-Ln19-A2 infection MOI 0.1 for 24 hours. RFP intensity quantified with ImageJ.
RFP intensity was quantified with ImageJ.

[2] = HR2D peptide release from the outer chitosan NP-layer in PBS and in 10% FBS; assay type: physicochemical; settings: within 10 minutes
Description: FIGS. 3A-C show DNA-encapsulation and HR2D-release.
The NPs were characterized for the plasmid encapsulation and integrity following synthesis, HR2D peptide release from the outer chitosan NP-layer in PBS and in 10% FBS and their cell (FIG. 3). First, chitosan-DNA nanoparticles were prepared by a complex coacervation method. In order to determine the optimal formulation, nanoparticles of different Chitosan/pDNA ratios were prepared and characterized. The binding of pDNA to chitosan for the formulations prepared herein was analyzed by gel electrophoresis.
Chitosan/pDNA NPs were coated with a liposomal layer after co-extrusion of chitosan-pDNA NPs with pre-formed liposomes. This layer ensures the stability and integrity of the plasmid DNA and the endosomal escape and also allows for functionalization of the nanoparticle surface. The liposomal layer was then coated with another layer of chitosan complexed with fusion inhibitor HR2-D peptide.

DACISQVNECINQSLAFICKSDELLCNT [HR2D peptide]
RFP expression [1]: significantly lower | peptide released from the outer layer [2]: 90%
